In article PMC12251482, “Floridoside Phosphotriester Derivatives: Synthesis and Inhibition of Human Neutrophils’ Oxidative Burst” (Molecules, 2025):

Columns and labels:
human neutrophils = assay: Neutrophils' apoptosis versus necrosis, Annexin V/PI flow cytometry; assay type: cell-based; details: for Cytotoxicity in neutrophils: 45 min; for Induction of late apoptosis in neutrophils: Figure S154
Experimental: The effect of the compounds under study on neutrophil viability was evaluated using flow cytometry. This assessment involved staining with Annexin V (AV) and propidium iodide (PI) from the BD Pharmingen™ FITC Annexin V Apoptosis Detection Kit, following the manufacturer’s protocol. […] Afterwards, the content of each well was transferred to a conical microtube and centrifuged at 400× g, at 20 °C, for 5 min. The neutrophils’ pellets were resuspended in PBS and centrifuged again under the previous conditions. The supernatant was removed, and the solution of Annexin V and PI from the kit was added, resuspending the pellet. The neutrophils were incubated in the dark at room temperature for 15 min and then diluted (dilution factor = 6) with the diluted binding buffer. […] In the flow cytometer, the fluorescence signal of at least 10,000 neutrophils per sample was collected in logarithmic mode and followed in channels 1 and 3. A polygon gate, corresponding to the neutrophil’s population, was drawn according to the light-scattering properties of neutrophils in a forward versus scatter plot. Thus, debris and other blood cells were unaccounted for in the samples. The green fluorescence corresponding to Annexin V was monitored in channel 1 and plotted as a histogram of FL1 staining, whereas the fluorescence corresponding to PI was monitored in channel 3 and plotted in the same histogram as FL3 staining. Neutrophils’ cell death was expressed as a relative percentage of viable, apoptotic, late apoptotic, and necrotic cells compared to a negative control (untreated cells).
The eﬀect of the compounds under study on neutrophil viability was evaluated using ﬂow cytometry.
This assessment involved staining with Annexin V (AV) and propidium iodide (PI) from the BD Pharmingen™ FITC Annexin V Apoptosis Detection Kit, following the manufacturer's protocol. Neutrophils (1 x10^6 cells/mL) were incubated in a 24-well plate in the dark at 37 °C for 45 minutes with the positive control (Triton X-100, […]
Afterwards, the content of each well was transferred to a conical microtube and centrifuged at 400g, at 20 °C, for 5 minutes. The neutrophils’ pellets were resuspended in PBS and centrifuged again under the previous conditions. The supernatant was removed, and the solution of Annexin V and PI from the kit was added, resuspending the pellet. The neutrophils were incubated in the dark at room temperature for 15 minutes and then diluted (dilution factor = 6) with the diluted binding buﬀer. The measurements were performed in a n Accuri C6 ﬂow cytometer (BD, Becton, Dickinson and Company, Franklin Lakes, NJ, USA), and the results were treated with BD Accuri™ C6 software. In the ﬂow cytometer, the ﬂuorescence signal of at least 10,000 neutrophils per sample was collected in logarithmic mode and followed in channels 1 and 3. A polygon gate, corresponding to the neutrophil’s population, was drawn according to the light-scattering properties of neutrophils in a forward vs scatter plot. Thus, debris and other blood cells were unaccounted for in the samples.
The green ﬂuorescence corresponding to Annexin V was monitored in channel 1 and plotted as a histogram of FL1 staining, whereas the ﬂuorescence corresponding to PI was monitored in channel 3 and plotted in the same histogram as FL3 staining. Neutrophils’ cell death was expressed as a relative percentage of viable, apoptotic, late apoptotic, and necrotic cells compared to a negative control (untreated cells). […]

[1] = system: PMA-stimulated human neutrophils; assay: HOCl generation by PMA-stimulated neutrophils, oxidation of APF; assay type: cell-based; details: PMA 160 nM, mean ± SEM
Experimental: APF is a non-fluorescent derivative of fluorescein, which is oxidized by HOCl, ONOO^−, and HO^• [87], in a concentration-dependent manner. Its selectivity was tested using the myeloperoxidase (MPO) inhibitor, 4-aminobenzoic acid hydrazide (ABAH). The addition of ABAH to human neutrophils, stimulated with PMA, decreased the APF-dependent fluorescence signal to the level of the control assay, ruling out the involvement of HO^• and ONOO^− [88]. The previously established methodology for monitoring oxidative burst modulation was adapted. In a 96-well plate, neutrophils (2 × 10^6 cells/mL) were incubated in the dark at 37 °C for 5 min with APF (2 μM) and the tested compounds (10–100 μM) or DMSO (4%). Quercetin (0.3–5.0 μM) and DPI (0.01–10 μM) were used as controls. After incubation, PMA (160 nM) was added, and the fluorescence (excitation at 495 nm and emission at 528 nm) was measured in a microplate reader (Synergy HT, BIO-TEK Instruments, Inc., Winooski, VT, USA). Kinetic readings were initiated immediately after the addition of APF. Obtained values correspond to the slope measured between 5 and 15 min. Effects are expressed as the percentage inhibition of APF oxidation. The results obtained represent at least three independent experiments.
APF is a non-ﬂuorescent derivative of ﬂuorescein, which is oxidized by HOCl, [20] ONOO-, and HO• [21] in a concentration- dependent manner. Its selectivity was tested using the myeloperoxidase (MPO) inhibitor, 4-aminobenzoic acid hydrazide (ABAH). The addition of ABAH to human neutrophils, stimulated with PMA, decreased the APF-dependent ﬂuorescence signal to the level of the control assay, ruling out the involvement of HO• and ONOO− [22]. The previously established methodology for monitoring oxidative burst modulation was adapted. In a 96-well plate, neutrophils (2 x 10^6 cells/mL) were incubated in the dark at 37 °C for 5 minutes with APF (2 µM) and the tested compounds (10 - 100 µM) or DMSO (4%). Quercetin (0.3 - 5.0 µM) and DPI (0.01 - 10 µM) were used as positive and negative controls, respectively. After incubation, PMA (160 nM) was added, and the ﬂuorescence (excitation at 495 nm and emission at 528 nm) was measured in a microplate reader (Synergy HT, BIO-TEK Instruments, Inc., Winooski, VT, USA). Kinetic readings were initiated immediately after the addition of APF. Obtained values correspond to the slope measured between 5 and 15 minutes. Eﬀects are expressed as the percentage inhibition of APF oxidation. The obtained results represent at least three independent experiments. […]
GraphPad Prism 6 software was used to plot the inhibition percentage versus compound concentration curves, enabling the determination of the concentration required to achieve 50% inhibition (IC50). GraphPad Prism 6 software was also used to perform all statistical analyses.
[…] was estimated by applying the one-way analysis (ANOVA), followed by the Bonferroni’s multiple comparisons test. In all cases, p-values < 0.05 were considered statistically signiﬁcant. The results are expressed as mean ± standard error of the mean (SEM).

[2] = tested concentrations, up to 100 μM

Molecule | Cytotoxicity in neutrophils (human neutrophils; 50 μM) | Cytotoxicity in neutrophils (human neutrophils; [2]) | APF: highest obtained % of inhibition ([1]; at 50 µM) [% ^50µM] | Cytotoxicity in neutrophils (human neutrophils; 25 μM) | Induction of late apoptosis in neutrophils (human neutrophils; 50 μM) | APF: highest obtained % of inhibition ([1]; at 25 µM) [% ^25µM] | inhibition at 50 µM ([1]; Homo sapiens, Neutrophil, at 50 µM, read-out: APF: highest obtained % of inhibition) [%] | inhibition at 25 µM ([1]; Homo sapiens, Neutrophil, at 25 µM, read-out: APF: highest obtained % of inhibition) [%]
3-Hydroxy-2-(galactopyranosyl)propyl dodecanoate [Compound 1e] | no cytotoxicity | non-cytotoxic | <20 | – | – | – | – | –
3-Hydroxy-2-galactopyranosylpropyl dioctyl phosphate [Compound 1b] | cytotoxic effects | – | – | did not exhibit significant cytotoxicity | induce late apoptosis | 29 ± 10 | – | –
OCC(CO)OC1OC(CO)C(O)C(O)C1O [Compound 1a, 2-O-D-(galactopyranosyl)glycerol] | – | no cytotoxic activity | – | – | – | – | 27 ± 6 | –
CCCCCCCCCCCC(=O)OCC(CO)OC1OC(COP(=O)(OCCN)OCCN)C(O)C(O)C1O (stereo not shown) [Compound 1h, 2-(6-(bis(2-Aminoethoxy))phosphoryl)galactopyranosyl-3-hydroxypropyl dodecanoate] | cytotoxic effects | – | – | did not exhibit significant cytotoxicity | induce late apoptosis | – | – | < 20
